Data reported in US20150051262A1, “NMDA RECEPTOR MODULATORS AND USES THEREOF” (Northwestern University, priority 2011, published 2015).
Residues, ends and D or L forms follow the SMILES beside them.

Legend:
[1] = Metabolic stability in liver microsomes, rat; assay type: in vitro ADME; conditions: Rat (M) microsomes; for % Remaining at 60 minutes / Stability Class / Half-life: 1 μM
Method: (§1) Metabolic stability was assessed in liver microsomes as well as in hepatocytes with few compounds.
(§2) Procedure for microsomal stability: • Species: Rat and human • Test concentration: 1 μM (n=2) • Protein concentration: 0.125 mg/mL • Time points: 0, 5, 15, 30 and 60 minutes • Controls: Minus NADPH and buffer • Analysis: Parent compound monitoring LC-MS/MS (Peak area ratios)

[2] = Metabolic stability in liver microsomes, human; assay type: in vitro ADME; conditions: Human (M) microsomes; for % Remaining at 60 minutes / Stability Class / Half-life: 1 μM
Method: as §1, §2

[3] = in vitro; conditions: dog, MDCK; for Papp: concentration 5 μM
Method: (§3) Procedure. Permeability of test compounds was assessed using MDCK (Madin-Darby Canine Kidney Cells) using the below parameters. • Test concentration: 5 μM (n=3) • Buffer: HBSS pH 7.4 • Time points: 0, 15, 30, 60 and 90 min • Analysis: Parent compound monitoring using LC-MS/MS

[4] = Bioavailability of CM-4A (plasma concentration after IV/PO dosing); assay type: in vivo, Sprague Dawley rats; conditions: 0.1 to 10 mg/kg PO, rat plasma, FIG. 1
Method: Procedure. […] Data for male and female were combined for 1 mg/kg PO dosing given that no gender difference was seen. Plasma was separated by centrifugation (1,000×G for 10 min at 4° C.) and plasma samples stored at −80° C. until assay. […]. On the day of the assay, samples and spiked plasma standards were thawed at 4° C., extracted in 3 volumes of ice cold acetonitrile, centrifuged at 25,000×G for 10 min at 4° C., and the supernatant was loaded into autosampler vials (4° C.).

[5] = system: long-term depression (LTD); test: Long-term depression (LTD) in hippocampal slices; assay type: cell-based; conditions: 1 μM, FIG. 7
Method: (Note 0.001 μM represents no drug addition; Each point is mean±SEM of 8-10 slices).

[6] = system: floating behavior; test: Porsolt test procedure 1; assay type: in vivo, Sprague-Dawley rats
Method: Animals were placed in a 46 cm tall×20 cm in diameter clear glass tube filled to 30 cm with tap water at room temperature (23° C.±0.5° C.) for 5 min on the test day. All animals were towel dried after each swimming session by the experimenter. Water was changed after every other animal. Animals were videotaped and total duration (sec) of floating behavior (as defined as the minimal movement required in order to maintain the animal's head above the water) was quantified by a blind experimenter.

[7] = system: latency to eat; test: Rat novelty-induced hypophagia (NIH) test; assay type: in vivo, SD rats; conditions: 1 mg/kg PO, 1 hr before test, FIG. 13
Method: The rat NIH test was conducted as follows. Animals were food deprived overnight before testing, and lab chow was placed into the center chamber of the open field. After NIH testing, the latency to eat in the animals' home cage was determined as a control. […] N=12 per group. *P<0.05.

[8] = system: ultrasonic vocalizations; test: Rat ultrasonic vocalizations (USVs) test; assay type: in vivo, SD rats; conditions: 1 mg/kg PO, 1 hr before testing
Method: FIGS. 14A and 14B show the results of the rat USVs test. Positive emotional learning was measured during the conditioned stimulus (CS) trials preceding the tickle unconditioned stimulus (UCS) trials (FIG. 14A). Animals received 15 second trials consisting of 6 CS and 6 UCS trials each (3 min total). Running speed for animals to self administer tickling at the end of the 3 min session was also measured. […] N=7-8. *P<0.05.

[9] = system: open field behavior; test: Rat open field test; assay type: in vivo, SD rats; conditions: 1 mg/kg PO, 1 hr before test, FIG. 15
[10] = system: fall latencies; test: Rat accelerating rota-rod test; assay type: in vivo, SD rats; conditions: 10-100 mg/kg PO, 30 and 60 min post-dosing, FIG. 16
Method: Animals were tested immediately before dosing (0 min), 30 min post-dosing, and 60 min post-dosing using a within subjects design.

[11] = system: floating behavior; test: Porsolt test procedure 2; assay type: in vivo, Sprague Dawley rats; conditions: for floating time in the Porsolt test: single dose (0.3 mg/kg IV), 24 hrs post-dosing, FIG. 11C
[12] = Kinetic aqueous solubility (pION method); assay type: physicochemical; conditions: pH 7.4, conc. tested 200 μM with 1% DMSO, 16 h incubation
[13] = Metabolic stability in hepatocytes, rat; assay type: in vitro ADME; conditions: Rat (H) hepatocytes, 10 μM
Method: as §1
(§4) Procedure for hepatocyte stability: • Stock preparation: DMSO • Buffer: Krebs Henseleit Buffer • Total Incubation volume: […] • Cell density: 1 million cells/mL • Test concentration: 10 μM with 0.5% DMSO (n=2) • Time points: 0 and 60 min • Analysis: LC-MS/MS

[14] = Metabolic stability in hepatocytes, human; assay type: in vitro ADME; conditions: Human (H) hepatocytes, 10 μM
Method: as §1, §4

[15] = system: MDCK (Madin-Darby Canine Kidney Cells); test: in vitro; conditions: concentration 5 μM
Method: as §3

[16] = system: Schaffer collateral-evoked NMDA EPSCs in CA1 pyramidal neurons; test: Long-term potentiation (LTP) assay procedure 2; assay type: cell-based, Sprague-Dawley rats; conditions: 1 μM, FIG. 8, P<0.05
Method: Assays were conducted as described in Zhang et al. (2008). Sprague-Dawley rats (12-18 days old; Taconic Farms) were deeply anesthetized with isoflurane and decapitated. Brains was removed rapidly, submerged in ice-cold artificial cerebrospinal fluid (ACSF, 2-4° C.), which contained (in mM): 124 NaCl, 4 KCl, 2 MgSO4, 2 CaC12, 1.25 NaH2PO4, 26 NaHCO3, 10 glucose; at pH 7.4, gassed continuously with 95% O2/5% CO2). Brains were hemisected, the frontal lobes cut off, and individual hemispheres glued using cyanoacrylate adhesive onto a stage immersed in ice-cold ACSF gassed continuously with 95% O2/5% CO2 during slicing. […] Bath application of test compounds (1 μM) was applied 30 min prior to application of Schaffer collateral stimulus trains to elicit LTP. LTP was induced by stimulation of Schaffer collateral axons with four high frequency theta burst stimulus trains of 10×100 Hz/5 pulse bursts each, applied at an inter-burst interval of 200 ms. Each train was 2 s in duration, and trains were applied 15 s apart.

[17] = system: floating behavior; test: Porsolt test procedure 2; assay type: in vivo, Sprague Dawley rats; conditions: 1 hr post-dosing
Method: The antidepressant-like effects of test compounds were examined with the rat Porsolt test as described in Page et al. (1999) and Burgdorf et al. (2009). Male Sprague Dawley rats (2-3 month old) were used in this study. Animals were dosed with test compounds (0.3 mg/kg IV) or sterile saline vehicle (1 ml/kg IV tail vein) 1 hr before a single test session. […] Water was changed after every other animal. […] CM-6A, CM-7A, CM-8A, and CM-9A were tested in the Porsolt test. CM-5A was not tested in the Porsolt test.
Animals received a single 15 min Porsolt habituation session on the day before the first 5 min Porsolt test. N=6 per group. *P<0.05 Fisher's PLSD post hoc test vs. vehicle.

[18] = single dose 0.3 mg/kg IV, FIG. 11A
[19] = single dose (0.3 mg/kg IV), FIG. 11B

Row | Compound | % Remaining at 60 minutes [1] | Stability Class [1] | % Remaining at 60 minutes [2] | Stability Class [2] | magnitude of LTD [5] | Mean Solubility (N = 3) at pH [12] | Half-life [1] | Half-life [2] | Permeability classification [15] | Recovery [15] | long-term potentiation after high frequency stimulation (fEPSP slope) [16] | floating time in the Porsolt test [17, 18] | floating time in the Porsolt test [17, 19] | floating time in the Porsolt test [11] | further results
1 | C[C@@H](O)[C@H](N)C(=O)N1CCC[C@H]1C(=O)N1CCC[C@@]1(Cc1ccccc1)C(=O)N[C@H](C(N)=O)[C@@H](C)O [CM-4A, (R)-N-((2S,3R)-1-amino-3-hydroxy-1-oxobutan-2-yl)-1-((S)-1-((2S,3R)-2-amino-3-hydroxybutanoyl)pyrrolidine-2-carbonyl)-2-benzylpyrrolidine-2-carboxamide] | 68% | Unstable (% Remaining <70%) | 72% | Moderate (% Remaining 70-90%) | significantly reduced the magnitude of LTD | – | – | – | – | – | – | – | – | – | half-life at 1 μM ([1]; liver microsomes): > 1 h; half-life at 1 μM ([2]; liver microsomes): > 1 h; recovery at 5 μM ([3]; pH 7.4): 100%; Papp ([3]; pH 7.4, Papp (10^−6 cm/sec), HBSS pH 7.4): 0.15 ×10⁻⁶ cm/s; Papp ([3]; pH 7.4, Permeability classification): < 3 ×10⁻⁶ cm/s; oral bioavailability (dose linearity) [4]: essentially linear; floating time in the rat Porsolt test (dose response) ([6]; 0.1 to 10 mg/kg PO, FIG. 9): dose- and time-dependent antidepressant effect; latency to eat in the NIH test [7]: produces an antidepressant/anxiolytic-like effect; positive emotional learning ([8]; FIG. 14A): increases positive emotional learning; aversive 20-kHz USVs ([8]; FIG. 14B): decreases aversive 20-kHz USVs; center compartment crosses and time (anxiolytic-like effect) [9]: produces an anxiolytic-like effect; locomotor behavior (line crosses) [9]: without effecting locomotor behavior; fall latencies (sedative/ataxia like effect) [10]: does not produce a sedative/ataxia like effect; floating time in the rat Porsolt test ([11]; positive control, 1 mg/kg PO, 1 hr and 24 hrs post dosing, FIG. 12): robust Antidepressant-like effects
2 | C[C@@H](O)[C@H](N)C(=O)N1CCC[C@H]1C(=O)N1CCC[C@@]1(Cc1ccc(F)cc1)C(=O)N[C@H](C(N)=O)[C@@H](C)O [CM-6A, (R)-N-((2S,3R)-1-amino-3-hydroxy-1-oxobutan-2-yl)-1-((S)-1-((2S,3R)-2-amino-3-hydroxybutanoyl)pyrrolidine-2-carbonyl)-2-(4-fluorobenzyl) pyrrolidine-2-carboxamide] | 100% | Stable (% Remaining >90%) | 88% | Moderate (% Remaining 70-90%) | – | >200 | >1 h | >1 h | Low (≦3 × 10^−6 cm/sec) | 100 | increased long-term potentiation | produced an antidepressant-like effect | produced an antidepressant-like effect | produced an antidepressant-like effect | % Remaining at 60 minutes [13]: 87%; Half-life [13]: >1 h; Stability Class [13]: Moderate (% Remaining 70-90%); % Remaining at 60 minutes [14]: 98%; Half-life [14]: >1 h; Stability Class [14]: Stable (% Remaining >90%)
3 | C[C@@H](O)[C@H](N)C(=O)N1CCC[C@H]1C(=O)N1CCC[C@@]1(Cc1cccc(F)c1)C(=O)N[C@H](C(N)=O)[C@@H](C)O [CM-9A, (R)-N-((2S,3R)-1-amino-3-hydroxy-1-oxobutan-2-yl)-1-((S)-1-((2S,3R)-2-amino-3-hydroxybutanoyl)pyrrolidine-2-carbonyl)-2-(3-fluorobenzyl) pyrrolidine-2-carboxamide] | 100% | Stable (% Remaining >90%) | 69% | Unstable (% Remaining <70%) | – | 148 ± 42 | >1 h | >1 h | Low (≦3 × 10^−6 cm/sec) | 100 | increased long-term potentiation | produced an antidepressant-like effect | produced an antidepressant-like effect | produced an antidepressant-like effect | –
4 | C[C@@H](O)[C@H](N)C(=O)N1CCC[C@H]1C(=O)N1CCC[C@H]1C(=O)N[C@H](C(N)=O)[C@@H](C)O [GLYX-13, reference compound] (H-TPPT-NH2) | – | – | – | – | significantly reduced the magnitude of LTD | – | – | – | – | – | – | – | – | – | –
5 | NS(=O)(=O)c1cccc2c1c([N+](=O)[O-])cc1[nH]c(=O)c(=O)[nH]c12 [NBQX, 2,3-dihydroxy-6-nitro-7-sulfamoyl-benzo[f]quinoxaline-2,3-dione, reference compound] | – | – | – | – | – | – | – | – | – | – | – | – | – | – | floating time in the rat Porsolt test, NBQX pretreatment ([6]; NBQX 10 mg/kg IP 10 min before CM-4A 1 mg/kg PO, FIG. 10): blocks the antidepressant-like effect of CM-4A
